Laboratory results reported in paper PMC10350928 (Journal of Medicinal Chemistry, 2023).
Where two headings read alike, the source gives them in different places.

Experiments:
WT c-MET [1] = molecular target: T1, WT c-MET (Homo sapiens, UniProt P08581); assay type: binding; details: Table 1; LLE = pKd – log D
Target sequence in this assay (P08581 25-1390): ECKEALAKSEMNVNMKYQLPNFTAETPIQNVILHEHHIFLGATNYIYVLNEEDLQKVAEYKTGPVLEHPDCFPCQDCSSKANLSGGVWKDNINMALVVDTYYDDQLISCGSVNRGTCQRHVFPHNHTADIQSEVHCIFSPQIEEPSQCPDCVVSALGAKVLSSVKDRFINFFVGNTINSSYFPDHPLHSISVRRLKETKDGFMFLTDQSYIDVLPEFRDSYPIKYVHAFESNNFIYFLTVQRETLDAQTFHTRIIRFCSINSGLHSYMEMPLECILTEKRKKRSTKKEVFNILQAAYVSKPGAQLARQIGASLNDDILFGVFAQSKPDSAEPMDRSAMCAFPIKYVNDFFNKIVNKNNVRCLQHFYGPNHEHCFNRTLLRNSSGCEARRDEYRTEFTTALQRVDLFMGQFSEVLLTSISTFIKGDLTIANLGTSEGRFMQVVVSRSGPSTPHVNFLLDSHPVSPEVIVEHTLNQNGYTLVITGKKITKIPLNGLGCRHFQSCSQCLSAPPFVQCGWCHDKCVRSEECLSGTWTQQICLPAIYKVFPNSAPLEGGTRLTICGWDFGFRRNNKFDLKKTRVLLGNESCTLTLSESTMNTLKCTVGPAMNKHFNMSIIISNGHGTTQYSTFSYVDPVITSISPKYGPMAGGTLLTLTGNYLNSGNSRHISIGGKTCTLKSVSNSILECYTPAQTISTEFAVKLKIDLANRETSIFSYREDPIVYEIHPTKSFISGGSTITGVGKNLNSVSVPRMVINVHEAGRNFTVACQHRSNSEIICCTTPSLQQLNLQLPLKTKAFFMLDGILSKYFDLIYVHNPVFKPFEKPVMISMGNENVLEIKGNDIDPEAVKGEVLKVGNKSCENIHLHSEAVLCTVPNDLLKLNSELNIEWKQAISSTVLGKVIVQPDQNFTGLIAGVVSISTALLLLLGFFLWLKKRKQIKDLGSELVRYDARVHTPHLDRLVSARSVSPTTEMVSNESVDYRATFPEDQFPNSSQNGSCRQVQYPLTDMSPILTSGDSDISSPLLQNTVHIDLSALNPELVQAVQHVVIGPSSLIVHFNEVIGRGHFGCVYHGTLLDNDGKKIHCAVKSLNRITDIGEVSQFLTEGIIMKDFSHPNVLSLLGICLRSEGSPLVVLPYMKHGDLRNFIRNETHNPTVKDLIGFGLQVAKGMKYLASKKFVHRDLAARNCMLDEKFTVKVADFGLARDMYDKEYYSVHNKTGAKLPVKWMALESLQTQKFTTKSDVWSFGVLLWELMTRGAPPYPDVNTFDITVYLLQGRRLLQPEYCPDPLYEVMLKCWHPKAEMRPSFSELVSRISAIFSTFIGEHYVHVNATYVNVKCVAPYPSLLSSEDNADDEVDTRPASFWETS

Rat hepatocytes = experiment: Rat hepatocyte Clint; details: for RH: rat hepatocytes; for Hepatocytes Rat: Table 4
WT c-MET [2] = molecular target: T1, WT c-MET; assay type: binding; details: adenosine 500 μM, WT c-MET 7.4 μM, compound 100 μM
Target sequence in this assay (P08581 1038-1348): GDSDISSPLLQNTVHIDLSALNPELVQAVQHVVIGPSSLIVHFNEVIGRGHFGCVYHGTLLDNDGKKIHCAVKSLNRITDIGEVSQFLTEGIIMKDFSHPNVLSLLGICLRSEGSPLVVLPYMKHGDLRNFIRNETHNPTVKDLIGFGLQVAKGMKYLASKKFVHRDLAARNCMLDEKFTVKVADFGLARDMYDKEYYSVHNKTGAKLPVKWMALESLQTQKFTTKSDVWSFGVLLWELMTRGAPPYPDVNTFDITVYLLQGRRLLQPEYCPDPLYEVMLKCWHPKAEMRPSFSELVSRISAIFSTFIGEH

WT c-MET [3] = molecular target: T1, WT c-MET; assay type: biochemical; details: LLE = pIC50 – log D
Target sequence in this assay (P08581 25-1390): as the sequence (P08581 25-1390) above

[4] = Rat plasma pharmacokinetics; details: male, Han Wistar, iv, 0.5 mg/kg
Human hepatocytes = experiment: Human hepatocyte Clint; details: Table 4
[5] = Human liver microsome Clint
RON = details: read-out: cell IC50 RON; cited from earlier work
c-MET = details: read-out: cell IC50 c-MET; cited from earlier work
[6] = Table 3, human liver microsomes

CC(c1ccccc1)n1cc(-c2cc(F)cc(F)c2)c(=O)[nH]c1=O (centres unmarked) [Compound 2, 5-(3,5-Difluorophenyl)-1-(1-phenylethyl)pyrimidine-2,4(1H,3H)-dione]
SPR assay LLE WT (WT c-MET [1]): 2.4 | RH (Rat hepatocytes; Table 1): 123 μL/min/10^6 cells | competition with adenosine for binding to WT c-MET (WT c-MET [2]): clear competition

C[C@@H](c1ccccc1)n1cc(-c2cc(F)cc(F)c2)c(=O)[nH]c1=O [Compound 3, (S)-5-(3,5-Difluorophenyl)-1-(1-phenylethyl)pyrimidine-2,4(1H,3H)-dione]
SPR assay LLE WT (WT c-MET [1]): 2.9 | RH (Rat hepatocytes; Table 1): 133 μL/min/10^6 cells

O=c1[nH]c(=O)n(Cc2ccccc2)cc1-c1cc(F)cc(F)c1 [Compound 4, 1-Benzyl-5-(3,5-difluorophenyl)pyrimidine-2,4(1H,3H)-dione]
SPR assay LLE WT (WT c-MET [1]): <1.0/<1.0 | RH (Rat hepatocytes; Table 1): 76.7 μL/min/10^6 cells

CC(c1ccccc1Cl)n1cc(-c2cc(F)cc(F)c2)c(=O)[nH]c1=O (centres unmarked) [Compound 5, 1-(1-(2-Chlorophenyl)ethyl)-5-(3,5-difluorophenyl)pyrimidine-2,4(1H,3H)-dione]
SPR assay LLE WT (WT c-MET [1]): 0.82 | RH (Rat hepatocytes; Table 1): 227 μL/min/10^6 cells

CC(c1cccc(Cl)c1)n1cc(-c2cc(F)cc(F)c2)c(=O)[nH]c1=O (centres unmarked) [Compound 7, 1-(1-(3-Chlorophenyl)ethyl)-5-(3,5-difluorophenyl)pyrimidine-2,4(1H,3H)-dione]
SPR assay LLE WT (WT c-MET [1]): 2.2 | RH (Rat hepatocytes; Table 1): 177 μL/min/10^6 cells

CC(c1cccc(-c2cc[nH]n2)c1)n1cc(-c2cc(F)cc(F)c2)c(=O)[nH]c1=O (centres unmarked) [Compound 8, 1-(1-(3-(1H-Pyrazol-3-yl)phenyl)ethyl)-5-(3,5-difluorophenyl)pyrimidine-2,4(1H,3H)-dione]
SPR assay LLE WT (WT c-MET [1]): 2.1 | RH (Rat hepatocytes; Table 1): 24.7 μL/min/10^6 cells

CC(c1cccc(-c2cn[nH]c2)c1)n1cc(-c2cc(F)cc(F)c2)c(=O)[nH]c1=O (centres unmarked) [Compound 9, 1-(1-(3-(1H-Pyrazol-4-yl)phenyl)ethyl)-5-(3,5-difluorophenyl)pyrimidine-2,4(1H,3H)-dione]
SPR assay LLE WT (WT c-MET [1]): 2.7 | RH (Rat hepatocytes; Table 1): 22.3 μL/min/10^6 cells

CC(c1cccc(-c2c[nH]cn2)c1)n1cc(-c2cc(F)cc(F)c2)c(=O)[nH]c1=O (centres unmarked) [Compound 10, 1-(1-(3-(1H-Imidazol-5-yl)phenyl)ethyl)-5-(3,5-difluorophenyl)pyrimidine-2,4(1H,3H)-dione]
SPR assay LLE WT (WT c-MET [1]): 3.1 | RH (Rat hepatocytes; Table 1): 6.03 μL/min/10^6 cells

CC(c1ccccc1)n1cc(-c2ccccc2)c(=O)[nH]c1=O (centres unmarked) [Compound 11, 5-Phenyl-1-(1-phenylethyl)pyrimidine-2,4(1H,3H)-dione]
RH (Rat hepatocytes; Table 1): 185 μL/min/10^6 cells

CC(c1ccccc1)n1cc(-c2ccccn2)c(=O)[nH]c1=O (centres unmarked) [Compound 12, 1-(1-Phenylethyl)-5-(pyridin-2-yl)pyrimidine-2,4(1H,3H)-dione]
SPR assay LLE WT (WT c-MET [1]): 3.2 | RH (Rat hepatocytes; Table 1): 300 μL/min/10^6 cells

CC(c1ccccc1)n1cc(-c2ncccn2)c(=O)[nH]c1=O (centres unmarked) [Compound 13, 1′-(1-Phenylethyl)-[2,5′-bipyrimidine]-2′,4′(1′H,3′H)-dione]
RH (Rat hepatocytes; Table 1): 4.67 μL/min/10^6 cells

CC(c1ccccc1)n1cc(-c2ccc3[nH]ccc3c2)c(=O)[nH]c1=O (centres unmarked) [Compound 14, 5-(1H-Indol-5-yl)-1-(1-phenylethyl)pyrimidine-2,4(1H,3H)-dione]
SPR assay LLE WT (WT c-MET [1]): 3.4/3.4 | RH (Rat hepatocytes; Table 1): 217 μL/min/10^6 cells

CC(c1ccccc1)n1cc(-c2cccc3cn[nH]c23)c(=O)[nH]c1=O (centres unmarked) [Compound 15, 5-(1H-Indazol-7-yl)-1-(1-phenylethyl)pyrimidine-2,4(1H,3H)-dione]
SPR assay LLE WT (WT c-MET [1]): 4.2 | RH (Rat hepatocytes; Table 1): 46.1 μL/min/10^6 cells | ADP-Glo assay LLE WT (WT c-MET [3]; Table 2): 3.5

CC(c1cccc(-c2c[nH]cn2)c1)n1cc(-c2cccc3cn[nH]c23)c(=O)[nH]c1=O (centres unmarked) [Compound 16, 1-(1-(3-(1H-Imidazol-5-yl)phenyl)ethyl)-5-(1H-indazol-7-yl)pyrimidine-2,4(1H,3H)-dione]
SPR assay LLE WT (WT c-MET [1]): 4.1 | RH (Rat hepatocytes; Table 1): 5.84 μL/min/10^6 cells

CC(c1ccccc1)n1cc(-c2cccc3c(F)n[nH]c23)c(=O)[nH]c1=O (centres unmarked) [Compound 17, 5-(3-Fluoro-1H-indazol-7-yl)-1-(1-phenylethyl)pyrimidine-2,4(1H,3H)-dione]
RH (Rat hepatocytes; Table 2): 49.4 μL/min/10^6 cells | ADP-Glo assay LLE WT (WT c-MET [3]; Table 2): 3.1

Cc1n[nH]c2c(-c3cn(C(C)c4ccccc4)c(=O)[nH]c3=O)cccc12 (centres unmarked) [Compound 18, 5-(3-Methyl-1H-indazol-7-yl)-1-(1-phenylethyl)pyrimidine-2,4(1H,3H)-dione]
RH (Rat hepatocytes; Table 2): 37.0 μL/min/10^6 cells | ADP-Glo assay LLE WT (WT c-MET [3]; Table 2): 3.6

CC(c1ccccc1)n1cc(-c2cccc3c(C#N)n[nH]c23)c(=O)[nH]c1=O (centres unmarked) [Compound 19, 7-(2,4-Dioxo-1-(1-phenylethyl)-1,2,3,4-tetrahydropyrimidin-5-yl)-1H-indazole-3-carbonitrile]
RH (Rat hepatocytes; Table 2): 41.4 μL/min/10^6 cells | ADP-Glo assay LLE WT (WT c-MET [3]; Table 2): 3.4

CC(c1ccccc1)n1cc(-c2c(F)ccc3cn[nH]c23)c(=O)[nH]c1=O (centres unmarked) [Compound 20, 5-(6-Fluoro-1H-indazol-7-yl)-1-(1-phenylethyl)pyrimidine-2,4(1H,3H)-dione]
RH (Rat hepatocytes; Table 2): 28.3 μL/min/10^6 cells | ADP-Glo assay LLE WT (WT c-MET [3]; Table 2): 3.2

CC(c1ccccc1)n1cc(-c2cc(F)cc3cn[nH]c23)c(=O)[nH]c1=O (centres unmarked) [Compound 21, 5-(5-Fluoro-1H-indazol-7-yl)-1-(1-phenylethyl)pyrimidine-2,4(1H,3H)-dione]
RH (Rat hepatocytes; Table 2): 14.0 μL/min/10^6 cells | ADP-Glo assay LLE WT (WT c-MET [3]; Table 2): 3.9

CC(c1ccccc1)n1cc(-c2cc(F)cc3c(C#N)n[nH]c23)c(=O)[nH]c1=O (centres unmarked) [Compound 22, 7-(2,4-Dioxo-1-(1-phenylethyl)-1,2,3,4-tetrahydropyrimidin-5-yl)-5-fluoro-1H-indazole-3-carbonitrile]
RH (Rat hepatocytes; Table 2): 51.4 μL/min/10^6 cells | ADP-Glo assay LLE WT (WT c-MET [3]; Table 2): 3.8

CC(c1ccccn1)n1cc(-c2cc(F)cc3c(C#N)n[nH]c23)c(=O)[nH]c1=O (centres unmarked) [Compound 23, 7-(2,4-Dioxo-1-(1-(pyridin-2-yl)ethyl)-1,2,3,4-tetrahydropyrimidin-5-yl)-5-fluoro-1H-indazole-3-carbonitrile]
RH (Rat hepatocytes; Table 3): 3.08 μL/min/10^6 cells | ADP-Glo assay LLE WT (WT c-MET [3]; Table 3): 3.8

CC(c1ccc(F)cc1)n1cc(-c2cc(F)cc3c(C#N)n[nH]c23)c(=O)[nH]c1=O (centres unmarked) [Compound 24, 5-Fluoro-7-(1-(1-(4-fluorophenyl)ethyl)-2,4-dioxo-1,2,3,4-tetrahydropyrimidin-5-yl)-1H-indazole-3-carbonitrile]
RH (Rat hepatocytes; Table 3): 4.40 μL/min/10^6 cells | ADP-Glo assay LLE WT (WT c-MET [3]; Table 3): 3.4

C[C@@H](c1ccc(F)cc1)n1cc(-c2cc(F)cc3c(C#N)n[nH]c23)c(=O)[nH]c1=O [Compound 25, (S)-5-Fluoro-7-(1-(1-(4-fluorophenyl)ethyl)-2,4-dioxo-1,2,3,4-tetrahydropyrimidin-5-yl)-1H-indazole-3-carbonitrile]
RH (Rat hepatocytes; Table 3): 5.13 μL/min/10^6 cells | Hepatocytes Rat (Rat hepatocytes): 5.13 μL/min/10^6 cells | clearance [4]: 3 mL/min/kg | ADP-Glo assay LLE WT (WT c-MET [3]; Table 3): 3.8 | Hepatocytes Human (Human hepatocytes): 2.48 μL/min/10^6 cells

CC(c1ccc(F)cc1)n1cc(-c2cc(F)cc3cn[nH]c23)c(=O)[nH]c1=O (centres unmarked) [Compound 26, 5-(5-Fluoro-1H-indazol-7-yl)-1-(1-(4-fluorophenyl)ethyl)pyrimidine-2,4(1H,3H)-dione]
RH (Rat hepatocytes; Table 3): 11.9 μL/min/10^6 cells | ADP-Glo assay LLE WT (WT c-MET [3]; Table 3): 3.5

C#Cc1n[nH]c2c(-c3cn(C(C)c4ccccc4)c(=O)[nH]c3=O)cccc12 (centres unmarked) [Compound 28, 5-(3-Ethynyl-1H-indazol-7-yl)-1-(1-phenylethyl)pyrimidine-2,4(1H,3H)-dione]
RH (Rat hepatocytes; Table 3): 9.10 μL/min/10^6 cells | ADP-Glo assay LLE WT (WT c-MET [3]; Table 3): 4.2

C#Cc1n[nH]c2c(-c3cn(C(C)c4ccccc4)c(=O)[nH]c3=O)cc(F)cc12 (centres unmarked) [Compound 29, 5-(3-Ethynyl-5-fluoro-1H-indazol-7-yl)-1-(1-phenylethyl)pyrimidine-2,4(1H,3H)-dione]
RH (Rat hepatocytes; Table 3): 5.99 μL/min/10^6 cells | Hepatocytes Rat (Rat hepatocytes): 5.99 μL/min/10^6 cells | clearance [4]: 60 mL/min/kg | HLM [5, 6]: 12.2 µL/min/mg | HLM ([5]; Table 4): 12.2 µL/min/mg | Hepatocytes Human (Human hepatocytes): 4.27 μL/min/10^6 cells

C#Cc1n[nH]c2c(-c3cn([C@@H](C)c4ccccc4)c(=O)[nH]c3=O)cc(F)cc12 [Compound 30, (S)-5-(3-Ethynyl-5-fluoro-1H-indazol-7-yl)-1-(1-phenylethyl)pyrimidine-2,4(1H,3H)-dione]
RH (Rat hepatocytes; Table 3): 15.0 μL/min/10^6 cells

C#Cc1n[nH]c2c(-c3cn(C(C)c4ccccn4)c(=O)[nH]c3=O)cc(F)cc12 (centres unmarked) [Compound 31, 5-(3-Ethynyl-5-fluoro-1H-indazol-7-yl)-1-(1-(pyridin-2-yl)ethyl)pyrimidine-2,4(1H,3H)-dione]
RH (Rat hepatocytes; Table 3): 4.81 μL/min/10^6 cells | Hepatocytes Rat (Rat hepatocytes): 4.81 μL/min/10^6 cells | clearance [4]: 13 mL/min/kg | ADP-Glo assay LLE WT (WT c-MET [3]; Table 3): 4.8 | HLM [5, 6]: <3.00 µL/min/mg | HLM ([5]; Table 4): <3.00 µL/min/mg | Hepatocytes Human (Human hepatocytes): 1.29 μL/min/10^6 cells

C#Cc1n[nH]c2c(-c3cn([C@@H](C)c4ccccn4)c(=O)[nH]c3=O)cc(F)cc12 [Compound 32, (S)-5-(3-Ethynyl-5-fluoro-1H-indazol-7-yl)-1-(1-(pyridin-2-yl)ethyl)pyrimidine-2,4(1H,3H)-dione]
RH (Rat hepatocytes; Table 3): 6.07 μL/min/10^6 cells | ADP-Glo assay LLE WT (WT c-MET [3]; Table 3): 5.1
